# Legend:
# [1] = test system: CCRF-CEM; assay: Effective concentration required to protect CEM cells from […] immunodeficiency virus (SIV) infection; type: functional, cell-based
# [2] = test system: CCRF-CEM; assay: Ratio of toxic concentration (TC50) to the effective concentration (EC50) (Therapeutic Index) in CEM cells; type: functional, Homo sapiens
# [3] = target: T1, Human immunodeficiency virus type 1 protease (Human immunodeficiency virus 1, UniProt Q72874); assay: Effective concentration required to inhibit human immunodeficiency virus 1 protease in MT-4 cells; type: cell-based, MT4
# [4] = target: T1, Human immunodeficiency virus type 1 protease; assay: Inhibitory concentration against human immunodeficiency virus 1 protease in MT-4 cells; type: cell-based, MT4
Structure (SMILES),EC50 [1] [µM],EC50 [3] [µM],IC50 [4] [µM],TI [2]
Cc1ccccc1SC1=C(O)OC2(CCC(C(C)(C)C)CC2)CC1=O (stereo not drawn),6.7,,,8
CCc1ccccc1SC1=C(O)OC2(CCC(C(C)(C)C)CC2)CC1=O (stereo not drawn),8.1,,,3
Cc1ccccc1SC1=C(O)OC(COc2ccccc2)(c2ccccc2)CC1=O (stereo not drawn),8.2,,,>12
Cc1ccc(C)c(SC2=C(O)OC3(CCC(C(C)(C)C)CC3)CC2=O)c1 (stereo not drawn),8.3,,,>12
CCCC1(CCc2ccccc2)CC(=O)C(Sc2ccccc2)=C(O)O1 (stereo not drawn),4.6,,,>22
CCC(c1ccccc1)c1c(O)c2ccccc2oc1=O (stereo not drawn) [PHENPROCOUMON],,,1,
Cc1ccc(C)c(SC2=C(O)OC(COc3ccccc3)(c3ccccc3)CC2=O)c1 (stereo not drawn),9.2,,,5
O=C1CC(COc2ccccc2)(c2ccccc2)OC(O)=C1Sc1ccccc1 (stereo not drawn),13,,,2
CCCC1(CCc2ccccc2)CC(=O)C(C(CC)c2ccccc2)=C(O)O1 (stereo not drawn),,,0.035,
CCc1ccccc1SC1=C(O)OC(COc2ccccc2)(c2ccccc2)CC1=O (stereo not drawn),5.6,,,8
CC(C)(C)C1CCC2(CC1)CC(=O)C(Sc1ccccc1)=C(O)O2 (stereo not drawn),> 5,,,1
Cc1ccc(C(C)(C)C)c(SC2=C(O)OC(CCc3ccccc3)(C(C)C)CC2=O)c1 (stereo not drawn),,15,0.0011,
O=C1CC2(CCCCC2)OC(O)=C1Sc1ccccc1,12.3,,,4

# More lines, main results first:
EC50 [1] [µM],EC50 [3] [µM],IC50 [4] [µM],Structure (SMILES),TI [2]
2,,,CCCC1(Cc2ccc3ccccc3c2)CC(=O)C(Sc2ccccc2C)=C(O)O1 (stereo not drawn),17
3.7,,,CCCC1(CCc2ccccc2)CC(=O)C(Sc2ccccc2C)=C(O)O1 (stereo not drawn),>27
4.1,,,CCCC1(CCc2ccccc2)CC(=O)C(Sc2ccccc2CC)=C(O)O1 (stereo not drawn),>24
1.7,1.7,,CCCC1(Cc2cccc3ccccc23)CC(=O)C(Sc2ccccc2CC)=C(O)O1 (stereo not drawn),46
3.8,,,CCCC1(Cc2cccc3ccccc23)CC(=O)C(Sc2ccccc2C)=C(O)O1 (stereo not drawn),>26
4.6,,,CCCC1(Cc2cccc3ccccc23)CC(=O)C(Sc2cc(C)ccc2C)=C(O)O1 (stereo not drawn),11
3.9,,,CCc1ccccc1SC1=C(O)OC2(CCCCC2)CC1=O,>26
3.3,,,Cc1ccccc1SC1=C(O)OC2(CCCCC2)CC1=O,>30
4,,,CCCC1(Cc2ccc3ccccc3c2)CC(=O)C(Sc2cc(C)ccc2C)=C(O)O1 (stereo not drawn),10
3.6,,,Cc1ccc(C)c(SC2=C(O)OC3(CCCCC3)CC2=O)c1,>28
4.3,,,CCCC1(Cc2cccc3ccccc23)CC(=O)C(Sc2ccccc2)=C(O)O1 (stereo not drawn),13
3.2,,,CCCC1(Cc2ccc3ccccc3c2)CC(=O)C(Sc2ccccc2)=C(O)O1 (stereo not drawn),10
4.3,,,CCCC1(CCc2ccccc2)CC(=O)C(Sc2cc(C)ccc2C)=C(O)O1 (stereo not drawn),>23
1.8,,,CCCC1(Cc2ccc3ccccc3c2)CC(=O)C(Sc2ccccc2CC)=C(O)O1 (stereo not drawn),34

# Reference: ChEMBL document CHEMBL1144371, “Design, synthesis, and biological evaluation of novel 4-hydroxypyrone derivatives as HIV-1 protease inhibitors” (Bioorg Med Chem Lett, 2005)
